Converted amounts (≈) assume the structure as drawn.

The values that follow come from ChEMBL document CHEMBL1124428, “In vitro metabolic transformations of vinblastine: oxidations catalyzed by peroxidase” (J Med Chem, 1989).

The nature of the assay: Inhibitory concentration against human T-cell leukemic cell line ([…]) in vitro. Format: functional.
Usually IC50 stands for the concentration that inhibits the measured activity by half. The compound `CCC(=O)C[C@@H]1CN(C=O)CCc2c([nH]c3ccccc23)[C@@](C(=O)OC)(c2cc3c(cc2OC)N(C)[C@H]2[C@](O)(C(=O)OC)[C@H](OC(C)=O)[C@]4(CC)C=CCN5CC[C@]32[C@@H]54)C1` [CATHARININE] showed a half-maximal inhibitory concentration (IC50) of 7.7 µg/mL (≈ 9.33 µM). `CC[C@]1(O)C[C@H]2CN(CCc3c([nH]c4ccccc34)[C@@](C(=O)OC)(c3cc4c(cc3OC)N(C=O)[C@H]3[C@@](O)(C(=O)OC)[C@H](OC(C)=O)[C@]5(CC)C=CCN6CC[C@]43[C@@H]65)C2)C1` [VINCRISTINE] displayed an IC50 of 0.025 µg/mL (≈ 0.0303 µM). For the compound `CC[C@]12CN3CCc4c([nH]c5ccccc45)[C@@](C(=O)OC)(c4cc5c(cc4OC)N(C)[C@H]4[C@@](O)(C(=O)OC)[C@H](OC(C)=O)[C@]6(CC)C=CCN7CC[C@]54[C@@H]76)C[C@@H](C3)[C@H]1O2.CC[C@]12CN3CCc4c([nH]c5ccccc45)[C@@](C(=O)OC)(c4cc5c(cc4OC)N(C)[C@H]4[C@@](O)(C(=O)OC)[C@H](OC(C)=O)[C@]6(CC)C=CCN7CC[C@]54[C@@H]76)C[C@@H](C3)[C@H]1O2.O=S(=O)(O)O` [VINLEUROSINE SULFATE], the IC50 is 0.4 µg/mL. `CC[C@]1(O)C[C@@H]2CN(CCc3c([nH]c4ccccc34)[C@@](C(=O)OC)(c3cc4c(cc3OC)N(C)[C@H]3[C@@](O)(C(=O)OC)[C@H](OC(C)=O)[C@]5(CC)C=CCN6CC[C@]43[C@@H]65)C2)C1` [VINBLASTINE] displayed an IC50 of 0.1 µg/mL (≈ 0.123 µM).
